Test results: patent US12599556B2, “Ophthalmic compositions” (BIOTHERAVISION, INC., priority 2021, dated 2026)

Assay: Stability study: assay and related substances by gradient HPLC
Format: physicochemical
Method: The stability of the exemplary compositions was investigated using gradient high performance liquid chromatography analysis at different storage time points of 1 month, 3 months, 6 months, 9 months, and 11 months. The amount of each active ingredient and related degradation substances, pH, osmolality, particle size distribution, and viscosity were measured for each composition at each time point.
The suspension slurry was not irradiation sterilized in the preparation of Panel 1 formulations.
The results of the Panel II stability studies at the accelerated condition (40° C.) for the compositions shown in Table 4 are summarized in Table 6. The suspension slurry of Panel 2 formulations F7, F8, and F9 were irradiation sterilized.

Compound	Degradation of loteprednol etabonate (stability studies)	Stability of ketorolac tromethamine in the compositions (all compositions of the stability studies)
CCOC(=O)O[C@]1(C(=O)OCCl)CC[C@H]2[C@@H]3CCC4=CC(=O)C=C[C@]4(C)[C@H]3[C@@H](O)C[C@@]21C [loteprednol etabonate, chloromethyl (8S,9S,10R,11S,13S,14S,17R)-17-ethoxycarbonyloxy-11-hydroxy-10,13-dimethyl-3-oxo-7,8,9,11,12,14,15,16-octahydro-6H-cyclopenta[a]phenanthrene-17-carboxylate]	pH dependency	
O=C(c1ccccc1)c1ccc2n1CCC2C(=O)O (centres unmarked) [Ketorolac tromethamine, 2-amino-2-(hydroxymethyl)propane-1,3-diol; 5-benzoyl-2,3-dihydro-1H-pyrrolizine-1-carboxylic acid]		exhibited stability
